Measured values as given in publication PMC3412939 (Biochimica et biophysica acta, 2012).

How the values were obtained:
[1] = Blue shift of tryptophan emission spectrum on membrane binding; format: physicochemical; conditions: PC/PG SUV, relative to spectrum without lipid; excitation 280 nm; mean ± SE
[2] = Acrylamide quenching of tryptophan fluorescence; format: physicochemical; conditions: 100 μM PC/PG (7:3) SUV, cholesterol-free

For wRVIRLVRVFRIFKLSRH [W-S4], the “Blue shift of tryptophan emission at saturation” value [1] was 13 ± 2 nm and the “Ratio of quenching constants KSV(lipid)/KSV(no lipid)” value [2] was 0.41 ± 0.03.
